Results: patent publication US7452965B2, “Colon tumor specific binding peptides” (University of Utah Research Foundation, priority 2002, dated 2008)
Read-outs that look alike come from different tables or passages of the source. Values belong to the compound of their own block, whether it stands above or below them. Bridge positions count the residues as written; N and C are the ends. Square brackets hold non-standard residues; d marks the D form. Ends that are not written are not given here. Peptide text beside a SMILES is read from it.

Legend:
HT29 cells [1] = conditions: for shift of EC50 of competition relative to RPM peptide: alanine mutants vs RPM peptide; for ability of peptide to compete RPM (CPIEDRPMC) phage binding to HT29 cells: peptide 0-1000 μM; for ability of peptide to compete RPM (CPIEDRPMC) phage binding to HT29 cells / level of RPM associated phage binding to HT29 cells in presence of competitor: 4° C.; for level of RPM associated phage binding to HT29 cells in presence of competitor: percentage of phage bound in absence of competitor
Procedure: Phage binding assay. HT29 cells were incubated with peptide in binding buffer at concentrations of 0, 0.1, 1, 10, 100, or 1000 μM for 30 minutes at 4° C. After 30 minutes of incubation, 10^10 pfu of phage were added to the cells and incubated at 4° C. for an additional 45 minutes. Following incubation, cells were washed 6× with wash buffer and the phage remaining bound were eluted with glycine. The number of phage bound to the cells was quantified with real time PCR.
To determine whether […] (SEQ ID NO: 134) displaying phage bind to HT29 cells specifically, a competition assay was performed using phage and synthetic peptides, peptides corresponding to the specific sequence, […] (SEQ ID NO: 134), and the non-specific sequence, […] (SEQ ID NO: 135), were synthesized by standard methods and oxidized to form a disulfide bond. Reaction of the peptides before and after oxidation with ElIman's reagent was performed to verify presence of the disulfide bond. […] In FIG. 2A, HT29 cells were incubated with increasing log concentrations of […] (SEQ ID NO: 134) peptide and with a constant number of either specific or non-specific phage. The number of phage binding to the HT29 cells was quantified and the percentage binding calculated based on the number of phage that bind in the absence of competitor. The sequence […] The reciprocal experiment was also done with HT29 cells incubated with increasing log concentrations of specific or non-specific peptide and a constant concentration of phage displaying the peptide […] (SEQ ID NO: 134).
The phage selection procedure produced naturally occurring substitution mutants so the phage and the peptide could be used to determine a functional consensus sequence for the family. HT29 cells were incubated with increasing log concentrations of […] (SEQ ID NO: 134) peptide and a constant number of phage displaying one of the sequences were selected.
To examine the importance of each residue within the RPM sequence for binding to HT29 cells, peptides were synthesized having alanine mutations in either the arginine, proline, or methionine residue and used in phage competition assay as described above.

human colon tumor = experiment: Peptide-binding assay on frozen tissue sections
Procedure: (§1) A biopsy of sporadic colon adenocarcinoma, liver and lung sarcoma, and grossly uninvolved colon, liver, lung, and stomach were frozen in optimum cutting temperature (OCT) and […] cryostat sections placed on glass slides. Sections were stained with H&E and untreated adjacent sections were incubated with RPM-FITC. After incubating with RPM-FITC in binding buffer for 45 minutes at 4° C., slides were washed and mounted using Pro-Long Anti-Fade (Molecular Probes). Nuclei were visualized by a quick incubation with Topro-3 (Molecular Probes) present in the last wash. Samples were analyzed by confocal microscopy.

HT29 cells [2] = experiment: RPM-FITC immunofluorescence staining of cultured cells (confocal microscopy); type: cell-based
Procedure: Cell Culture: HT29, HCT116, or a 50% mixture of HT29 and HCT116 cells were plated on glass slides (Nalge). Wells were incubated with 10 μM of RPM-FITC peptide for 45 minutes at 4° C. or 37° C. After washing with wash buffer, cells were blocked with 1% NGS, 0.1% BSA, 0.1% Triton-X100 in PBS. Following the blocking step, wells were incubated with the polyclonal p53 antibody, D10, (Santa Cruz) for 1 hour at room temperature. The wells were washed and incubated with the secondary antibodies GαFITC Alexa 488 (Molecular Probes) and GαMouse Alexa 647 (Molecular Probes) and the nuclear stain Topro-3 (Molecular Probes). Wells were washed and mounted using Pro-Long Anti-fade (Molecular Probes). Slides were analyzed by confocal microscopy.
The peptide then was tested to determine whether it was able to differentiate HT29 from HCT116 cells. In order to distinguish HT29 from HCT116 cells in our immunohistochemical assays, staining was carried out in the presence of the transcription factor, p53. Staining for the protein p53 is a way to visually discriminate HT29 from HCT116 cells, since p53 is mutated and accumulates in HT29 cells but is wild type in HCT116 cells and thus, is rapidly degraded. […] To test the ability of the fluorescein conjugated peptide (RPM-FITC) to preferentially bind HT29 cells, HT29 and HCT116 cells were stained with RPM-FITC. […] When a mixture of HT29 and HCT116 cells was incubated with RPM-FITC and concurrently analyzed for the presence of p53, cells with the highest level of p53 protein also bound RPM-FITC (FIG. 5A).
The ability of a molecule to translocate across the cell membrane is important for drug delivery. HT29 cells were incubated for 1 hour at either 4° C. or 37° C. in the presence of 100 uM RPM-FITC. After incubation, cells were washed, fixed with 2% paraformaldehyde, then incubated with an anti-FITC secondary antibody to amplify the fluorescence signal.

[3] = test system: lung and liver cancer, grossly uninvolved lung, liver, and stomach; experiment: Peptide-binding assay on frozen tissue sections; set-up: species or system human; conditions: cryostat sections
Procedure: as §1
To determine whether RPM-FITC was able to bind cancers originated from tissues other than colon or to other normal tissues, a peptide-binding assay was performed on cryostat sections of lung and liver cancer, and grossly uninvolved lung, liver, and stomach. As a positive control, a section of colon tumor was stained in parallel with the other sections. […] Binding to HT29 Cells is Dependent on the Amino Acids, RPMC-C (SEQ ID NO: 136).

HT29 cells [4] = experiment: MTT cell viability after RPM-KLAK or KLAK; type: cell-based; conditions: 72 hours at 37° C.
Procedure: (§2) RPM-KLAK (SEQ ID NO: 132) and KLAK (SEQ ID NO: 133) on HT29 and HCT116 cells. HT29 and HCT116 cells were incubated with increasing log concentrations of RPM-KLAK (SEQ ID NO: 132) or KLAK (SEQ ID NO: 133) for 72 hours at 37° C. After incubation, MTT was added to a final concentration of […] and incubated at 37° C. for 1 hour. The media/MTT was removed carefully and the cells dissolved with 0.1N HCl in isopropanol. Absorbance was read on a plate reader (Cytofluor II, Perceptive Biosystems) at 570 nm.
(§3) Since RPM-FITC is internalized at 37° C., RPM may be used to deliver a toxin to HT29 cells. […] Cells that were incubated with (KLAK)2 (SEQ ID NO: 138) alone or with free peptide were refractory to death induced by the toxin. However, when a peptide that was specific and also internalized by cells was conjugated to (KLAK)2 (SEQ ID NO: 138), the cells were killed. RPM was coupled to (KLAK)2 (SEQ ID NO: 138) and incubated with HT29 and HCT116 cells with either (KLAK)2 (SEQ ID NO: 138) alone as a negative control or RPM-(KLAK)2 (SEQ ID NO: 5). Cells were treated for 72 hours at 37° C. At the end of the incubation, cell viability was measured by MTT assay. […] This was indeed observed for HCT116 incubation with RPM (KLALK)2 (SEQ ID NO: 5) (FIG. 6B).

HCT116 cells = experiment: MTT cell viability after RPM-KLAK or KLAK; type: cell-based; conditions: 72 hours at 37° C.
Procedure: as §2, §3

HT29 cells [5] = experiment: MTT viability of protease-treated cells; type: cell-based; conditions: MTT 45 minutes at 37° C. after protease treatment
Procedure: (§4) In order to further this observation, HT29 cells were treated with active or boiled proteases to determine the effect of treatment on the ability of an RPM displaying phage to bind. HT29 cells were treated with active or boiled collagenase for 15 minutes, trypsin for 5 minutes, or proteinase K for 0.5 minutes at 37° C. After protease treatment, cells were washed, then an equal number of phage were added and allowed to bind. […] The decrease in phage binding to the HT29 cells was due to the protease activity since boiling the proteases abolished the effect with phage binding returning to levels of that observed for PBS treated cells (FIG. 6B). […] After treating HT29 cells with proteases as described above, MTT was added to the cells and incubated for 45 minutes at 37° C. After incubation, the cells were solubilized with 0.1N HCl in isopropanol and the absorbance due to MTT incorporation was determined.

HT29 cells [6] = experiment: Protease assay: RPM phage binding to protease-treated cells; conditions: 37° C.
Procedure: HT29 cells were incubated at 37° C. with either active or boiled Collagenase diluted 1:20 for 10 minutes, Trypsin-EDTA 0.25% (Gibco) for 5 minutes or Proteinase K (Gibco) diluted 1:600 for 1 minute. After incubation, cells were then incubated with RPM bearing phage as described above. The number of phage remaining bound was quantified by real time PCR.
as §4

EC50 (HT29 cells [1]): 690 µM
shift of EC50 of competition relative to RPM peptide (HT29 cells [1]): ~100 fold
Compound: CC[C@H](C)[C@@H]1NC(=O)[C@@H]2CCCN2C(=O)[C@@H](N)CSSC[C@@H](C(=O)O)NC(=O)[C@H](CCSC)NC(=O)[C@@H]2CCCN2C(=O)[C@H](C)NC(=O)[C@H](CC(=O)O)NC(=O)[C@H](CCC(=O)O)NC1=O [APM] (H-CPIEDAPMC-OH; disulfide 1-9 (inferred); N-terminus and C-terminus assumed)

Compound: CC[C@H](C)[C@@H]1NC(=O)[C@@H]2CCCN2C(=O)[C@@H](N)CSSC[C@@H](C(=O)O)NC(=O)[C@H](CCSC)NC(=O)[C@@H]2CCCN2C(=O)[C@H](CCCNC(=N)N)NC(=O)[C@H](CC(=O)O)NC(=O)[C@H](CCC(=O)O)NC1=O [CPIEDRPMC, cys-pro-ile-glu-asp-arg-pro-met-cys] (H-CPIEDRPMC-OH; disulfide 1-9)
effect of unlabeled competitor on RPM-FITC binding to colon tumor (human colon tumor): abrogate binding
effect of unlabeled competitor on RPM-FITC staining of HT29 cells (HT29 cells [2]): able to abolish
ability of peptide to compete RPM (CPIEDRPMC) phage binding to HT29 cells (HT29 cells [1]): able to compete
ability of peptide to compete RPM (CPIEDRPMC) phage binding to HT29 cells (HT29 cells [1]; listed as RPM peptide): successfully abolished binding
level of RPM associated phage binding to HT29 cells in presence of competitor (HT29 cells [1]): less than 4%
EC50 (HT29 cells [1]; read-out: EC50 of competition, competition of RPM displaying phage on HT29 cells): 5 µM
labeling of lung and liver cancer and uninvolved lung, liver, stomach [3]: failed to stain

EC50 (HT29 cells [1]): 545 µM
shift of EC50 of competition relative to RPM peptide (HT29 cells [1]): ~100 fold
Compound: CC[C@H](C)[C@@H]1NC(=O)[C@@H]2CCCN2C(=O)[C@@H](N)CSSC[C@@H](C(=O)O)NC(=O)[C@H](C)NC(=O)[C@@H]2CCCN2C(=O)[C@H](CCCNC(=N)N)NC(=O)[C@H](CC(=O)O)NC(=O)[C@H](CCC(=O)O)NC1=O [RPA] (H-CPIEDRPAC-OH; disulfide 1-9 (inferred); N-terminus and C-terminus assumed)

Compound: (KLAK)2: antimicrobial toxin that selectively disrupts the mitochondrial membrane of eukaryotic cells, SEQ ID NO: 138 / 133 (KLAKKLAK) [reference compound]
effect on HT29 cell viability (HT29 cells [4]): did not effect the viability
effect on HCT116 cell viability (HCT116 cells): did not effect the viability

Compound: A11 D RPM: RPM peptide consisting of all D amino acids ([dC][dP][dI][dE][dD][dR][dP][dM][dC]; cysteine pairing not given here)
ability of peptide to compete RPM (CPIEDRPMC) phage binding to HT29 cells (HT29 cells [1]): not able to compete
ability of peptide to compete RPM (CPIEDRPMC) phage binding to HT29 cells (HT29 cells [1]; listed as peptide synthesized with all D amino acids): failed to compete

Compound: CKHLGPQLC (disulfide 1-9 (inferred)) [reference compound]
effect of unlabeled competitor on RPM-FITC staining of HT29 cells (HT29 cells [2]): unaffected
ability of peptide to compete RPM (CPIEDRPMC) phage binding to HT29 cells (HT29 cells [1]): not able to compete
ability of peptide to compete RPM (CPIEDRPMC) phage binding to HT29 cells (HT29 cells [1]; listed as unrelated peptide): failed to block
level of RPM associated phage binding to HT29 cells in presence of competitor (HT29 cells [1]): 100%

Compound: RPM middle: peptide bearing the RPM motif in the middle of the peptide, CPIRPMEDC (SEQ ID NO: 137)
fold less potent than RPM in competing with phage for HT29 cell binding (HT29 cells [1]; compared to RPM): over 100 fold
ability of peptide to compete RPM (CPIEDRPMC) phage binding to HT29 cells (HT29 cells [1]): failed to compete

Compound: collagenase
average absorbance (MTT incorporation) of treated cells (HT29 cells [5]): 0.189
decrease of RPM phage binding to active protease treated HT29 cells (HT29 cells [6]): 85%

Compound: trypsin
average absorbance (MTT incorporation) of treated cells (HT29 cells [5]): 0.175
decrease of RPM phage binding to active protease treated HT29 cells (HT29 cells [6]): 90%
